Legend:
[1] = test system: embryonic dorsal root ganglion (DRG) sensory neuron cultures; assay: Glucotoxicity assay: cell viability (calcein AM) of DRG sensory neurons under glucose-induced toxicity; type: cell-based, Sprague Dawley rat; conditions: for viability at 1 µM / EC50: Rattus norvegicus, Neuron; for viability at 1 µM: glucose + DMSO was 54% ± 2; for EC50: 0.1-1000 nM novologue overnight, then 4 hrs of hyperglycemia, mean±SEM (n=3-8), read-out: EC50 for protection against glucose-induced toxicity
Procedure: DRG sensory neurons were incubated in the absence or presence of 0.1-1000 nM of the indicated novologue overnight and then subjected to 4 hrs of hyperglycemia.
The ganglia were sedimented at 1,000×g for 5 min, resuspended in growth media [phenol red free Neurobasal medium (Gibco, Grand Island, NY) containing 25 mM glucose, 1X B-27 additive, 50 ng/ml NGF (Harlan Bioscience, Indianapolis, IN), 4 mM glutamine, 100 U/mL penicillin and 100 μg/mL streptomycin] and triturated with a fire-polished glass pipette. The cells were cultured on collagen-coated (0.1 mg/mL collagen followed by overnight air drying in a laminar flow hood) black-walled 96-well plates (Corning Incorporated Corning, NY) at a seeding density of 2-3×10^4 cells per well. DRG neurons were re-fed the next day with fresh growth media containing 40 μM fluorodeoxyuridine and 10 μM cytosine β-D-arabinoside (both from Sigma Aldrich, St. Louis, MO) for 2 days to remove proliferating cells. Experiments were performed on DRG neurons on the third day in culture after placing the cells in fresh growth medium. […]
DRG neurons were incubated overnight with the test compounds in the presence of Neurobasal medium, 50 ng/ml NGF and antibiotics only. In order to monitor the efficiency of the compounds in protecting DRG neurons against glucotoxicity, Calcein AM (Invitrogen, Carlsbad, CA) was utilized to measure cell viability. Hydrolysis of calcein AM to a fluorescent product can only occur in live cells. Excess glucose was added to the cultures for 4 hrs and cell viability was measured by incubating the cells with 2 μM calcein AM for 30 min in the dark at 37° C. Fluorescence was then measured using a plate reader with excitation and emission wavelengths set to 485 nm and 520 nm, respectively. The arbitrary fluorescence readings were normalized to the total amount of protein from each respective well of the neuronal cultures. The protein concentrations in each well were determined using the DC protein assay (Bio-Rad). Significant differences in the efficacy of the novologues for increasing cell viability were determined using a Kruskal-Wallis non-parametric ANOVA and Dunn's post-test.

Hsp70 = assay: Immunoblot analysis of induction of Hsp70 in DRG sensory neurons; type: cell-based, Sprague Dawley rat; conditions: 24 hours incubation, then 4 hours of glucotoxic stress; Hsp70 normalized to β-actin
Procedure: DRG sensory neurons were incubated in the presence of DMSO (Cntrl) or 10-1000 nM of the indicated novologue overnight and then subjected to 4 hrs of hyperglycemia. The neurons were harvested and Hsp70 and β-actin levels were determined by immunoblot analysis. Band intensity was quantified using Image J, Hsp70 expression was normalized to the level of β-actin.
Since it was previously shown that the cytoprotective activity manifested by KU-32 requires Hsp70, the ability of 11b and 11n to induce Hsp70 was determined relative to KU-32. Increasing concentrations of KU-32, 11n, and 11b were incubated with DRG sensory neurons for 24 hours before the cells were subjected to 4 hours of glucotoxic stress. Hsp70 levels were examined by performing immunoblot analysis with the cellular lysates (FIG. 5). 11n and 11b induced Hsp70 levels at similar concentrations (10 nM) as those needed for neuroprotection.
DRG from embryonic day 15-18 Sprague Dawley rat pups were harvested into Leibovitz's L15 medium (L15) and dissociated with 0.25% trypsin for 30 min at 37° C. […]

[2] = Table 1, 1 μM of each novologue + 20 mM excess glucose
[3] = 1 μM novologue + 20 mM excess glucose
[4] = Table 2 cyclohexene analogues, 1 μM novologue + 20 mM excess glucose

## CO[C@@H]1[C@@H](O)[C@@H](O)C(Oc2ccc(CCNC(C)=O)c(-c3ccc(O)cc3)c2)OC1(C)C (stereo partly drawn) [11m, N-(2-(5-(((3R,4S,5R)-3,4-dihydroxy-5-methoxy-6,6-dimethyltetrahydro-2H-pyran-2-yl)oxy)-4′-hydroxy-[1,1′-biphenyl]-2-yl)ethyl)acetamide]
[1]; [2]
  viability at 1 µM: 67%

## CO[C@@H]1[C@@H](O)[C@@H](O)C(Oc2ccc(CCNC(C)=O)c(-c3ccc4c(c3)OCO4)c2)OC1(C)C (stereo partly drawn) [11n, N-(2-(benzo[d][1,3]dioxol-5-yl)-4-(((3R,4S,5R)-3,4-dihydroxy-5-methoxy-6,6-dimethyltetrahydro-2H-pyran-2-yl)oxy)phenethyl)acetamide]
Hsp70
  concentration at which Hsp70 levels were induced: 10 nM
[1]
  EC50: 18.4 ± 3.2 nM
[1]; [2]
  viability at 1 µM: 83%

## CO[C@@H]1[C@@H](O)[C@@H](O)C(Oc2ccc(CCNC(C)=O)c(-c3cccc(Cl)c3)c2)OC1(C)C (stereo partly drawn) [11e, N-(2-(3′-chloro-5-(((3R,4S,5R)-3,4-dihydroxy-5-methoxy-6,6-dimethyltetrahydro-2H-pyran-2-yl)oxy)-[1,1′-biphenyl]-2-yl)ethyl)acetamide]
[1]; [3]
  protection against glucose-induced toxicity (in words): showed significant protection against glucotoxicity
[1]; [2]
  viability at 1 µM: 90%

## COc1cccc(-c2cc(OC3OC(C)(C)[C@H](OC)[C@@H](O)[C@H]3O)ccc2CCNC(C)=O)c1 (stereo partly drawn) [11j, N-(2-(5-(((3R,4S,5R)-3,4-dihydroxy-5-methoxy-6,6-dimethyltetrahydro-2H-pyran-2-yl)oxy)-3′-methoxy-[1,1′-biphenyl]-2-yl)ethyl)acetamide]
[1]; [2]
  viability at 1 µM: 78%

## CO[C@@H]1[C@@H](O)[C@@H](O)[C@H](Oc2ccc(C3CC=CCC3NC(C)=O)c(-c3cccc(C(F)(F)F)c3)c2)OC1(C)C (mixture of isomers) [20b, N-(4′-(((3R,4S,5R)-3,4-dihydroxy-5-methoxy-6,6-dimethyltetrahydro-2H-pyran-2-yl)oxy)-3″-(trifluoromethyl)-1,2,3,6-tetrahydro-[1,1′: 2′,1″-terphenyl]-2-yl) acetamide]
[1]; [4]
  viability at 1 µM: 69%

## CO[C@@H]1[C@@H](O)[C@@H](O)C(Oc2ccc(CCNC(C)=O)c(-c3ccc(F)cc3)c2)OC1(C)C (stereo partly drawn) [11c, N-(2-(5-(((3R,4S,5R)-3,4-dihydroxy-5-methoxy-6,6-dimethyltetrahydro-2H-pyran-2-yl)oxy)-4′-fluoro-[1,1′-biphenyl]-2-yl)ethyl)acetamide]
[1]; [3]
  protection against glucose-induced toxicity (in words): showed significant protection against glucose-induced cell death
[1]; [2]
  viability at 1 µM: 75%

## CO[C@@H]1[C@@H](O)[C@@H](O)[C@H](Oc2ccc(C3CC=CCC3NC(C)=O)c(-c3cccc(F)c3)c2)OC1(C)C (mixture of isomers) [20a, N-(4′-(((3R,4S,5R)-3,4-dihydroxy-5-methoxy-6,6-dimethyltetrahydro-2H-pyran-2-yl)oxy)-3″-fluoro-1,2,3,6-tetrahydro-[1,1′: 2′,1″-terphenyl]-2-yl)acetamide]
[1]; [4]
  viability at 1 µM: 78%

## CO[C@@H]1[C@@H](O)[C@@H](O)C(Oc2ccc(CCNC(C)=O)c(-c3ccncc3)c2)OC1(C)C (stereo partly drawn) [11p, N-(4-(((3R,4S,5R)-3,4-dihydroxy-5-methoxy-6,6-dimethyltetrahydro-2H-pyran-2-yl)oxy)-2-(pyridin-4-yl)phenethyl)acetamide]
[1]; [2]
  viability at 1 µM: 81%

## CO[C@@H]1[C@@H](O)[C@@H](O)C(Oc2ccc(CCNC(C)=O)c(-c3cccc(C(F)(F)F)c3)c2)OC1(C)C (stereo partly drawn) [11f, N-(2-(5-(((3R,4S,5R)-3,4-dihydroxy-5-methoxy-6,6-dimethyltetrahydro-2H-pyran-2-yl)oxy)-3′-(trifluoromethyl)-[1,1′-biphenyl]-2-yl)ethyl)acetamide]
[1]; [3]
  protection against glucose-induced toxicity (in words): showed significant protection against glucotoxicity
[1]
  EC50: 188 ± 43.5 nM
[1]; [2]
  viability at 1 µM: 83%

## CO[C@@H]1[C@@H](O)[C@@H](O)C(Oc2ccc(CCNC(C)=O)c(-c3cccc(CN4CCOCC4)c3)c2)OC1(C)C (stereo partly drawn) [11l, N-(2-(5-(((3R,4S,5R)-3,4-dihydroxy-5-methoxy-6,6-dimethyltetrahydro-2H-pyran-2-yl)oxy)-3′-(morpholinomethyl)-[1,1′-biphenyl]-2-yl)ethyl)acetamide]
[1]; [2]
  viability at 1 µM: 83%

## COc1ccccc1-c1cc(OC2OC(C)(C)[C@H](OC)[C@@H](O)[C@H]2O)ccc1CCNC(C)=O (stereo partly drawn) [11i, N-(2-(5-(((3R,4S,5R)-3,4-dihydroxy-5-methoxy-6,6-dimethyltetrahydro-2H-pyran-2-yl)oxy)-2′-methoxy-[1,1′-biphenyl]-2-yl)ethyl)acetamide]
[1]; [2]
  viability at 1 µM: 92%

## CO[C@@H]1[C@@H](O)[C@@H](O)C(Oc2ccc(CCNC(C)=O)c(-c3ccccc3)c2)OC1(C)C (stereo partly drawn) [11a, N-(2-(5-(((3R,4S,5R)-3,4-dihydroxy-5-methoxy-6,6-dimethyltetrahydro-2H-pyran-2-yl)oxy)-[1,1′-biphenyl]-2-yl)ethyl)acetamide]
[1]; [2]
  viability at 1 µM: 76%

## CO[C@@H]1[C@@H](O)[C@@H](O)C(Oc2ccc(CCNC(C)=O)c(-c3cccc(C)c3)c2)OC1(C)C (stereo partly drawn) [11k, N-(2-(5-(((3R,4S,5R)-3,4-dihydroxy-5-methoxy-6,6-dimethyltetrahydro-2H-pyran-2-yl)oxy)-3′-methyl-[1,1′-biphenyl]-2-yl)ethyl)acetamide]
[1]; [2]
  viability at 1 µM: 82%

## CO[C@@H]1[C@@H](O)[C@@H](O)C(Oc2ccc(CCNC(C)=O)c(-c3cccnc3)c2)OC1(C)C (stereo partly drawn) [11o, N-(4-(((3R,4S,5R)-3,4-dihydroxy-5-methoxy-6,6-dimethyltetrahydro-2H-pyran-2-yl)oxy)-2-(pyridin-3-yl)phenethyl)acetamide]
[1]; [3]
  protection against glucose-induced toxicity (in words): unable to protect against glucose-induce toxicity
[1]; [2]
  viability at 1 µM: 61%

## CO[C@@H]1[C@@H](O)[C@@H](O)C(Oc2ccc(CCNC(C)=O)c(-c3ccccc3SC)c2)OC1(C)C (stereo partly drawn) [11h, N-(2-(5-(((3R,4S,5R)-3,4-dihydroxy-5-methoxy-6,6-dimethyltetrahydro-2H-pyran-2-yl)oxy)-2′-(methylthio)-[1,1′-biphenyl]-2-yl)ethyl)acetamide]
[1]
  EC50: 384 ± 108 nM
[1]; [2]
  viability at 1 µM: 83%
[1]; protection against glucose-induced toxicity
  EC50 fold greater than KU-32: approximately 1.6 fold

## CO[C@@H]1[C@@H](O)[C@@H](O)C(Oc2ccc(CCNC(C)=O)c(-c3ccccc3Cl)c2)OC1(C)C (stereo partly drawn) [11d, N-(2-(2′-chloro-5-(((3R,4S,5R)-3,4-dihydroxy-5-methoxy-6,6-dimethyltetrahydro-2H-pyran-2-yl)oxy)-[1,1′-biphenyl]-2-yl)ethyl)acetamide]
[1]; [3]
  protection against glucose-induced toxicity (in words): showed significant protection against glucose-induced cell death
[1]; [2]
  viability at 1 µM: 71%

## CO[C@@H]1[C@@H](O)[C@@H](O)C(Oc2ccc(CCNC(C)=O)c(-c3ccc(C(F)(F)F)cc3)c2)OC1(C)C (stereo partly drawn) [11g, N-(2-(5-(((3R,4S,5R)-3,4-dihydroxy-5-methoxy-6,6-dimethyltetrahydro-2H-pyran-2-yl)oxy)-4′-(trifluoromethyl)-[1,1′-biphenyl]-2-yl)ethyl)acetamide]
[1]; [3]
  protection against glucose-induced toxicity (in words): showed significant protection against glucose-induced cell death
[1]; [2]
  viability at 1 µM: 74%
